Reference: ChEMBL document CHEMBL3769388, “Optimization of a Dicarboxylic Series for in Vivo Inhibition of Citrate Transport by the Solute Carrier 13 (SLC13) Family” (J Med Chem, 2016)
Calls of active or inactive are those of the source. The calls are words filed in the database; no cut-off is given here.

Columns and labels:
[1] = target: Sodium-dependent phosphate transport protein 2A (Homo sapiens) (UniProt Q06495); experiment: Inhibition of NaPiA2 (unknown origin)
[2] = target: Glucocorticoid receptor (Homo sapiens) (UniProt P04150); experiment: Inhibition of GR (unknown origin)
Chain of Glucocorticoid receptor (Homo sapiens) (P04150 whole entry): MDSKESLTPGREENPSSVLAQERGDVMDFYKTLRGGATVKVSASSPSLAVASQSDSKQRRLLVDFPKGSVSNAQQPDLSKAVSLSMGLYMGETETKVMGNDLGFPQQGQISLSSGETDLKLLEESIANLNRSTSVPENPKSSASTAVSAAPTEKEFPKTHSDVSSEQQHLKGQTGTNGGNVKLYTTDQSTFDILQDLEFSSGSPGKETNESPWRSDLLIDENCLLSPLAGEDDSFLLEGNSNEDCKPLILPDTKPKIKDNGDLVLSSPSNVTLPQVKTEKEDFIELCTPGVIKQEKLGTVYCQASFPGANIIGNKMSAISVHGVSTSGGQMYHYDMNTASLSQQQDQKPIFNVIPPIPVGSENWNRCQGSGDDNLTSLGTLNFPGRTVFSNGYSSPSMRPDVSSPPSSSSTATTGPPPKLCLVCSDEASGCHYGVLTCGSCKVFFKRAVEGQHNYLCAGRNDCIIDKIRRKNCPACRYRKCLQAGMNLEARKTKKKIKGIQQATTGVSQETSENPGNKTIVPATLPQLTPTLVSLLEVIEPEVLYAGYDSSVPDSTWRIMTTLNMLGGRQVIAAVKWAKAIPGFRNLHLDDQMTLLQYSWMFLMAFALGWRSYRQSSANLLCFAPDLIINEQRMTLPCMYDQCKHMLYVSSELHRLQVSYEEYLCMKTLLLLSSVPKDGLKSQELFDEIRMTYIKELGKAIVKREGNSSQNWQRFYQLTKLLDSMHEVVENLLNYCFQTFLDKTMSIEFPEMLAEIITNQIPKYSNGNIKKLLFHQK

[3] = target: Cytochrome P450 2C9 (Homo sapiens, UniProt P11712); experiment: Inhibition of CYP2C9 (unknown origin); type: ADME
Chain of Cytochrome P450 2C9 (P11712 whole entry): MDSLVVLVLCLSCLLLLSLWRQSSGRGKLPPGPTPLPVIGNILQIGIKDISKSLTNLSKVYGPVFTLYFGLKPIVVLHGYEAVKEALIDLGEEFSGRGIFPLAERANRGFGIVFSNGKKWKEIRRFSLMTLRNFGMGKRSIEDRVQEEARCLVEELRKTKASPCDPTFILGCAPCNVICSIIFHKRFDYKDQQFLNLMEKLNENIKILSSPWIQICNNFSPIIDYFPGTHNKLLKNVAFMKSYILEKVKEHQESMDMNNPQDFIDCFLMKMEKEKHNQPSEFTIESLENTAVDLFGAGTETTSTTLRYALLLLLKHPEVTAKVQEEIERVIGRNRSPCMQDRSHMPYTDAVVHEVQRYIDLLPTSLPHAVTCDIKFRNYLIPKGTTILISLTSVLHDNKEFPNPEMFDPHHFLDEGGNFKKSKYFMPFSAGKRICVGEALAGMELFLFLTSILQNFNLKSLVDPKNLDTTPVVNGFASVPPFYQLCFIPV

[4] = Passive permeability in MDCK cells; type: ADME, cell-based, Canis lupus familiaris; conditions: dog
[5] = target: Sodium channel protein type 5 subunit alpha (Homo sapiens, UniProt Q14524); experiment: Inhibition of NaV1.5 (unknown origin)
Chain of Sodium channel protein type 5 subunit alpha (Q14524 whole entry): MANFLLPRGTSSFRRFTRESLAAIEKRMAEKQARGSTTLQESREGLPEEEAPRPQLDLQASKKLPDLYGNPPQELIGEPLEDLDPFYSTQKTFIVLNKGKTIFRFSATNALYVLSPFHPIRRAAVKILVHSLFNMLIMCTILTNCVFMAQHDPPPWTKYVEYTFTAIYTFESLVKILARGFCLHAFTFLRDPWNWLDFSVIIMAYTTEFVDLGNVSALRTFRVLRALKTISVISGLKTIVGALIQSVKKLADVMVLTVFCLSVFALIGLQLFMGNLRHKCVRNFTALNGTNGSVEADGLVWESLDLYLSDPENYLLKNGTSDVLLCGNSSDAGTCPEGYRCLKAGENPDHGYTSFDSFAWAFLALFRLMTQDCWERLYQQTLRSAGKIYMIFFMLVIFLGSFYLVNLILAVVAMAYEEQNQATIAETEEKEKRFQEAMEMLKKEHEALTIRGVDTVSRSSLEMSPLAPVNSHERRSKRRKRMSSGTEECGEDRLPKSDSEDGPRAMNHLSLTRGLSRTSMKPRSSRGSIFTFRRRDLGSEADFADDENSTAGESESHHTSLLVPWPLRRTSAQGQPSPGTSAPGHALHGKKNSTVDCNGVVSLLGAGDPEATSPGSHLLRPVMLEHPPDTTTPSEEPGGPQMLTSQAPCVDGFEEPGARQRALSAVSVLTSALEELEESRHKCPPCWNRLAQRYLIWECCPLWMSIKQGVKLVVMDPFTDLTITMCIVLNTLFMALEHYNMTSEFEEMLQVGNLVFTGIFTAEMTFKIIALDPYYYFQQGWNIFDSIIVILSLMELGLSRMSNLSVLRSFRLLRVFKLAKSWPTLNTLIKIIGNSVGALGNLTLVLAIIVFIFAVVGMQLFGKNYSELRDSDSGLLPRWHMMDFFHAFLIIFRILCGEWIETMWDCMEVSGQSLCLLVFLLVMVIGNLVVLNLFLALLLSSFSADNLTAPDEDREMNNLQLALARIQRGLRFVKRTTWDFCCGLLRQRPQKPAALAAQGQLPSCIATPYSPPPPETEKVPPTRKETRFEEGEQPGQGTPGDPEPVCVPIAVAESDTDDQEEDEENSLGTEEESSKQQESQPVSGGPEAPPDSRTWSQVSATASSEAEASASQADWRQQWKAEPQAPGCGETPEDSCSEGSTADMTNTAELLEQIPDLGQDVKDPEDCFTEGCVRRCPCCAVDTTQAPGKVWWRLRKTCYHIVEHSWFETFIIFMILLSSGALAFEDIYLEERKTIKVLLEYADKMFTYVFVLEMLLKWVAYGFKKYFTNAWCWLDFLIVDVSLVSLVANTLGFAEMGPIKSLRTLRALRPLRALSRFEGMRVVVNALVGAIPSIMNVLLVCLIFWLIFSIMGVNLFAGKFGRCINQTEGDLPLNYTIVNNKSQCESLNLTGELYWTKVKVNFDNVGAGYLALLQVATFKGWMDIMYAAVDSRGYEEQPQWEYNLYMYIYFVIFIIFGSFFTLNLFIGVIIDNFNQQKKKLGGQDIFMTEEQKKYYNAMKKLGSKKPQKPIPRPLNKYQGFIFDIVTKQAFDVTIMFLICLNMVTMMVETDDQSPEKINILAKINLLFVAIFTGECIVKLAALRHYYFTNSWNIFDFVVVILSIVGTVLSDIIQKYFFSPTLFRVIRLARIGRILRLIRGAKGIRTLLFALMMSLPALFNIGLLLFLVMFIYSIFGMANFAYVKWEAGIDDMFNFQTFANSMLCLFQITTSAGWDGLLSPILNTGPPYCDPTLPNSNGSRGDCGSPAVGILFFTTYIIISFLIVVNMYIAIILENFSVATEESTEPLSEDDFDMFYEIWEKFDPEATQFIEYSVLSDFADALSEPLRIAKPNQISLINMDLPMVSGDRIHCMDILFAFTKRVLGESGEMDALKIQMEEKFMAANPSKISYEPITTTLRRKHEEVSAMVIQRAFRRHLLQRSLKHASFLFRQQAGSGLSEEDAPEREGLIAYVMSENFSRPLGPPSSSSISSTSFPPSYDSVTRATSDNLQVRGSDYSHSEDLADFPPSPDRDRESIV

[6] = target: Tyrosine-protein kinase ABL1 (Homo sapiens) (UniProt P00519); experiment: Inhibition of ABL1 (unknown origin)
Chain of Tyrosine-protein kinase ABL1 (Homo sapiens) (P00519 whole entry): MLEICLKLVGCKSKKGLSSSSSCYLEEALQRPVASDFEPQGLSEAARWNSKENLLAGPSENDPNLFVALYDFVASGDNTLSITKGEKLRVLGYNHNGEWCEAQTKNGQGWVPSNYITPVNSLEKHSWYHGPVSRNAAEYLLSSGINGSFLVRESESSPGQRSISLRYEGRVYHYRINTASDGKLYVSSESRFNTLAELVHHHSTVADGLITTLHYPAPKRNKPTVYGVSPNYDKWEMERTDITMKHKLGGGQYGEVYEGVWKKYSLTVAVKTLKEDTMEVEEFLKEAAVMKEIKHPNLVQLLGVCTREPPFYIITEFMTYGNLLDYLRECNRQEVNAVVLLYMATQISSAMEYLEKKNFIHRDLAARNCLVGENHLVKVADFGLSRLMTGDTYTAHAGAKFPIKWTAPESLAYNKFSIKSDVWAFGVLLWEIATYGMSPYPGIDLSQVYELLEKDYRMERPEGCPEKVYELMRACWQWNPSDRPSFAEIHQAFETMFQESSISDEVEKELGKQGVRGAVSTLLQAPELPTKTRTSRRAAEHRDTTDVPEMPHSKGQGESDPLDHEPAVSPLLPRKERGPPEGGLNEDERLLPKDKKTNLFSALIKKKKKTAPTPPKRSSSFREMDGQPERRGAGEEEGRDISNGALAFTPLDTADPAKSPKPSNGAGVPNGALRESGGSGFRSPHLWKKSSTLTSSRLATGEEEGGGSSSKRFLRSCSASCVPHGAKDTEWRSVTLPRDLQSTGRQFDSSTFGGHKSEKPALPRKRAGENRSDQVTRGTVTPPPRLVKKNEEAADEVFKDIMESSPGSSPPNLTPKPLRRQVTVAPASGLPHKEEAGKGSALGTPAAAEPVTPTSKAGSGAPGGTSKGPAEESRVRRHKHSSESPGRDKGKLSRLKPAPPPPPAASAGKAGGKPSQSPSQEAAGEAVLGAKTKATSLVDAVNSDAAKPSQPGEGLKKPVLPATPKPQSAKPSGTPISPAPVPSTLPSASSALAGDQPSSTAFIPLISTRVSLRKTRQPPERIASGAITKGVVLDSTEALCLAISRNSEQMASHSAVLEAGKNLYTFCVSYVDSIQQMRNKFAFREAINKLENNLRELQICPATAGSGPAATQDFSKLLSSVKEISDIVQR

Chain of Sodium-dependent phosphate transport protein 2A (Homo sapiens) (Q06495 whole entry): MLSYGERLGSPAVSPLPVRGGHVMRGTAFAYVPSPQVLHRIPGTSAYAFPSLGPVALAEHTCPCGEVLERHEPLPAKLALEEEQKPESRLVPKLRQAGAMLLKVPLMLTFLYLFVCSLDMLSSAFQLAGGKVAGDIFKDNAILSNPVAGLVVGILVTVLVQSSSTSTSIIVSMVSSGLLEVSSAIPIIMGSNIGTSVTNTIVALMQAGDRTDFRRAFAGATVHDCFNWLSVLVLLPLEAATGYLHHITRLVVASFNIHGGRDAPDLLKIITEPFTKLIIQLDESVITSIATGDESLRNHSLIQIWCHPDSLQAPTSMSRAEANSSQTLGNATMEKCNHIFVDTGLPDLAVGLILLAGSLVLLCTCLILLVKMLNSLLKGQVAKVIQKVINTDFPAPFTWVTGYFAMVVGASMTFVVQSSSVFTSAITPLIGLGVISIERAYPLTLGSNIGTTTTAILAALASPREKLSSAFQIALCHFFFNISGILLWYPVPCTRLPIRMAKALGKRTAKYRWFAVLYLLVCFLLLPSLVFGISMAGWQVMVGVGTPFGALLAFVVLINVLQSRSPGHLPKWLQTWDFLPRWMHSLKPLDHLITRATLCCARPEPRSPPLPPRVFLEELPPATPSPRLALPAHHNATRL

Question: What does the source list for `COc1ncc(C)cc1CC[C@@](O)(CC(=O)O)C(=O)O`?
Answer: inhibition [1]: inactive; inhibition [2]: inactive; inhibition (INH) [3]: Not Active; Papp [4]: 0.3 ×10⁻⁶ cm/s; inhibition (INH) [5]: Not Active; inhibition [6]: inactive
